Reference: patent publication US20260166046A1, “Inhibitors of methionine aminopeptidase-2 and methods of preparation and uses thereof” (Primetime Life Sciences LLC, priority 2022, published 2026)
Like-named read-outs stand apart in the source and are kept apart here.

Tests used:
[1] = tested on: G. lamblia WB; experiment: Trophozoite viability IC50 determination, Giardia assay (ATPLite); format: cell-based; settings: Giardia duodenalis, read-out: Cell viability values Mean IC50 (nM) G. lamblia WB
Procedure: (§1) Giardia cultures: Trophozoites of G. lamblia isolates WB and GS were grown anaerobically in borosilicate glass screw-cap culture tubes (Fisher Scientific) at pH 7.0 in modified TYI-S-33 medium. The medium was supplemented with 10% heat-inactivated bovine serum (Sigma-Aldrich) and 0.05% bovine bile (Sigma-Aldrich). To attain low-oxygen-tension conditions, the tubes were filled to 85 to 90% of their total volume capacity and incubated without shaking at 37° C. Subcultures (2×10^5 trophozoites per tube) were made three times a week. Detachment of trophozoites for inoculation was achieved by chilling the cultures on ice for 20 min. Culturing and detachment of Metronidazole-resistant G. lamblia Assemblage A 713M3 and assemblage B 1279-M1 trophozoites followed the same protocol, except that the growth medium was supplemented with metronidazole gradually increasing the concentration to 10 μM. Amebae cultures: E. histolytica strain HM1:IMSS trophozoites were grown at 37° C. in TYI-S-33 medium supplemented with penicillin (100 U/mL) and streptomycin sulfate (100 μg/mL). Trophozoites were grown anaerobically in borosilicate tubes and subcultures were made 1-2 times a week. Trophozoites were detached for inoculation by chilling the cultures on ice for 20 minutes.
(§2) Trophozoite viability IC50determination
(§3) Giardia assays: 10 μL giardia trophozoites in growth medium were plated at a density of 10,000 cells/well in sterile 96-well black clear bottom assay plates. Fumagillin and fumagillol derivatives were 1:3 serially diluted from a 1 μM DMSO stock solution and then 100 μL/well were transferred in duplicate to the assay wells. Metronidazole (control) was 1:3 serially diluted in growth medium from a 100 μM stock solution in DMSO. The assay plates were placed in a BD GasPak™ EZ Container System (BD Diagnostics) to create an anaerobic growth environment. The sealed containers were incubated at 37° C. for 72 hr. Following incubation, 70 μL/well of the ATPLite reagent (PerkinElmer) was added to the assay plates for one-step lysis and ATP level detection. The luminescent signals of the assay plates were measured on an EnSpire 2300 plate reader (PerkinElmer). Concentration response titration points for each compound were fitted to a 4-parameters logistic nonlinear regression model using KaleidaGraph, yielding the IC50value and standard error (SE).

[2] = tested on: G. lamblia GS; experiment: as above; format: cell-based; settings: Giardia duodenalis, read-out: Cell viability values Mean IC50 (nM) G. lamblia GS
Procedure: as §1, §2, §3

[3] = tested on: E. histolytica HM1: IMSS; experiment: Trophozoite viability IC50 determination, Amebae assay (ATPLite); format: cell-based; settings: Entamoeba histolytica, read-out: Cell viability values Mean IC50 (nM) E. histolytica HM1: IMSS
Procedure: as §1, §2, §3
Amebae assays: The protocol is identical to that described above except that the trophozoites were plated at a density of 5000 cells/well because of their larger size.

[4] = biological target: T1, Recombinant human MetAP2 (Homo sapiens, UniProt P50579); experiment: MetAP2 fluorescence assay; format: biochemical; settings: recombinant human MetAP2, H-Met-Gly-Pro-AMC substrate
T1 construct: purchased Bio-Techne/R&D systems
T1 sequence (P50579 whole entry): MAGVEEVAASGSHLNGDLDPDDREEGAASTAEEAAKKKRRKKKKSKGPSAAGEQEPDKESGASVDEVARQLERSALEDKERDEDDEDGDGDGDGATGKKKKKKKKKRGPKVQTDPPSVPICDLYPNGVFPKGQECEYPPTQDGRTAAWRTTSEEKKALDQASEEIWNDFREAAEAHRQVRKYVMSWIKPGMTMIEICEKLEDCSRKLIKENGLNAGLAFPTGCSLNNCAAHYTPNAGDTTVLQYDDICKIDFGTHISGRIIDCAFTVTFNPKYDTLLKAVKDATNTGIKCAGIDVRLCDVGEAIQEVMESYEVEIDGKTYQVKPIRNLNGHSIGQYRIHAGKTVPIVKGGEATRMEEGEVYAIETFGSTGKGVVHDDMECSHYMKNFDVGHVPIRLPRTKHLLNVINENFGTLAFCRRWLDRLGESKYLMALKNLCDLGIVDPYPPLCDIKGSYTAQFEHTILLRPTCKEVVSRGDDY
Procedure: MetAP2 Fluorescence Assay
Recombinant human MetAP2 (Bio-Techne/R&D systems) was diluted to 10 μg/mL in the assay buffer (50 mM HEPES, 0.1 mM CoCl2, 100 mM NaCl, pH 7.5). The substrate, H-Met-Gly-Pro-AMC (Bio-Techne/R&D systems), was diluted to 500 μM with 2 μg/mL of the coupling enzyme, recombinant human dipeptidyl peptidase-4 (Bio-Techne/R&D systems), in assay buffer. 50 μL of 10 μg/mL recombinant human METAP2 were loaded into a flat-bottom black 96-well plate (Greiner Bio), and the reaction was initiated by adding 50 μL of the substrate/dipeptidyl peptidase-4 mixture. The reaction mixture was incubated at room temperature for 10 minutes, and the fluorescence was measured for 5 minutes at excitation and emission wavelengths of 380 nm and 460 nm, respectively, in kinetic mode. For IC50determination, 0.5 μL inhibitor solution was added to the reaction mixture. The reaction rates were used to calculate IC50with KaleidaGraph.

[5] = trophozoites, 72 hr, anaerobic, ATP level

Compound | IC50 ([1]; 72 h) [nM] | IC50 ([2]; 72 h) [nM] | IC50 ([3]; 72 h) [nM] | IC50 [4] [nM] | IC50 [1, 5] [nM] | IC50 [2, 5] [nM] | IC50 [3, 5] [nM]
CO[C@@H]1[C@H](OC(=O)Nc2ccccc2B(O)O)CC[C@]2(CO2)[C@H]1[C@@]1(C)O[C@@H]1CC=C(C)C [No 19] | 101 to 1000 | 10.1 to 100 | 101 to 1000 | < 10 |  |  | 
CO[C@@H]1[C@H](OC(=O)N(C)c2ccc(B(O)O)cc2)CC[C@]2(CO2)[C@H]1[C@@]1(C)O[C@@H]1CC=C(C)C [No 20] |  |  |  | < 10 | 101 to 1000 | 101 to 1000 | 101 to 1000
CO[C@@H]1[C@H](OC(=O)Nc2cc(B(O)O)cc(C(=O)O)c2)CC[C@]2(CO2)[C@H]1[C@@]1(C)O[C@@H]1CC=C(C)C [No 21] | 101 to 1000 | 101 to 1000 | 101 to 1000 | < 10 |  |  | 
CO[C@@H]1[C@H](OC(=O)Nc2cc(C(=O)O)ccc2B(O)O)CC[C@]2(CO2)[C@H]1[C@@]1(C)O[C@@H]1CC=C(C)C [No 22] |  |  |  | < 10 | 101 to 1000 | 101 to 1000 | 101 to 1000
CO[C@@H]1[C@H](OC(=O)Nc2cc(B(O)O)ccc2Cl)CC[C@]2(CO2)[C@H]1[C@@]1(C)O[C@@H]1CC=C(C)C [No 23] | 101 to 1000 | 101 to 1000 | 101 to 1000 | < 10 |  |  | 
CO[C@@H]1[C@H](OC(=O)Nc2cc(C#N)ccc2B(O)O)CC[C@]2(CO2)[C@H]1[C@@]1(C)O[C@@H]1CC=C(C)C [No 24] | 101 to 1000 | 101 to 1000 | > 1000 | < 10 |  |  | 
COC(=O)c1ccc(B(O)O)c(NC(=O)OC2CCC3(CO3)C(C3(C)OC3CC=C(C)C)C2OC)c1 (stereo not drawn) [No 26] | > 1000 | 101 to 1000 | > 1000 |  |  |  | 
COC(=O)c1cc(NC(=O)OC2CCC3(CO3)C(C3(C)OC3CC=C(C)C)C2OC)cc(B(O)O)c1 (stereo not drawn) [No 27] | 101 to 1000 | 101 to 1000 | 101 to 1000 |  |  |  | 
COC1C(OC(=O)NCc2ccc(F)cc2B(O)O)CCC2(CO2)C1C1(C)OC1CC=C(C)C (stereo not drawn) [No 32] | > 1000 | 101 to 1000 | > 1000 |  |  |  | 
COC1C(OC(=O)NCc2cc(C#N)cc(B(O)O)c2)CCC2(CO2)C1C1(C)OC1CC=C(C)C (stereo not drawn) [No 36] | > 1000 | 101 to 1000 | > 1000 |  |  |  | 
CO[C@@H]1[C@H](OC(=O)NCCc2ccccc2B(O)O)CC[C@]2(CO2)[C@H]1[C@@]1(C)O[C@@H]1CC=C(C)C [No 39] | > 1000 | 101 to 1000 |  | < 10 |  |  | 
COC1C(OC(=O)NCc2cncc(B(O)O)c2)CCC2(CO2)C1C1(C)OC1CC=C(C)C (stereo not drawn) [No 42] | > 1000 | 101 to 1000 | > 1000 |  |  |  | 
COC1C(OC(=O)N2CCC(n3cc(B(O)O)cn3)CC2)CCC2(CO2)C1C1(C)OC1CC=C(C)C (stereo not drawn) [No 46] | > 1000 | 101 to 1000 | > 1000 |  |  |  | 
COC1C(OC(=O)N2CC(B(O)O)Cn3ccnc32)CCC2(CO2)C1C1(C)OC1CC=C(C)C (stereo not drawn) [No 56] | > 1000 | 101 to 1000 | > 1000 |  |  |  | 
COc1nsc(CNC(=O)OC2CCC3(CO3)C(C3(C)OC3CC=C(C)C)C2OC)c1B(O)O (stereo not drawn) [No 57] | > 1000 | 101 to 1000 | > 1000 |  |  |  | 
COC1C(OC(=O)NCCn2cc(B(O)O)cn2)CCC2(CO2)C1C1(C)OC1CC=C(C)C (stereo not drawn) [No 61] | > 1000 | 101 to 1000 | > 1000 |  |  |  | 
COC1C(OC(=O)N2CCOc3c(B(O)O)cncc32)CCC2(CO2)C1C1(C)OC1CC=C(C)C (stereo not drawn) [No 66] | > 1000 | 101 to 1000 | > 1000 |  |  |  | 
